Measurements taken from ChEMBL document CHEMBL4118122, “Identification and biological evaluation of thiazole-based inverse agonists of RORγt” (Bioorg Med Chem Lett, 2018).

How the values were obtained:
[1] = biological target: Adenosine receptor A3 (Homo sapiens) (UniProt P0DMS8); assay: Displacement of [125I]AB-MECA from human recombinant adenosine A3 receptor at 10 uM after 120 mins by scintillation counting analysis relative to control
[2] = biological target: T1, Beta-1 adrenergic receptor (Homo sapiens, UniProt P08588); assay: Displacement of [3H](-)CGP 12177 from human beta1 adrenoceptor at 10 uM after 60 mins by scintillation counting analysis relative to control
Target sequence in this assay (P08588 whole entry, looked up): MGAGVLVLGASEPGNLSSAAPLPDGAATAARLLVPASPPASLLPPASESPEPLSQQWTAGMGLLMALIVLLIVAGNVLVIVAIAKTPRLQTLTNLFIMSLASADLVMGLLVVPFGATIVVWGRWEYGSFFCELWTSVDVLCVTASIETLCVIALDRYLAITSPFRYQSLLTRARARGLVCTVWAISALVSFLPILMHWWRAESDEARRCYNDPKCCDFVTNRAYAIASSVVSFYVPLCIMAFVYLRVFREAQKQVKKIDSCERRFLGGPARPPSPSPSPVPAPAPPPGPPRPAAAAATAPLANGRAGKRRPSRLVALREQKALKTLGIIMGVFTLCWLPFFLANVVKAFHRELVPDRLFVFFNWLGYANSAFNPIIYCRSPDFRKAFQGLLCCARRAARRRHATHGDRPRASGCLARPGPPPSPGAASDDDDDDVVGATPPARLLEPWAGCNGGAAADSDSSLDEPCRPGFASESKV

D(2) dopamine receptor = D(2) dopamine receptor (Homo sapiens, UniProt P14416); assay: Displacement of [3H]7-OH-DPAT from human recombinant dopamine D2S receptor at 10 uM after 60 mins by scintillation counting analysis relative to control
Chain of D(2) dopamine receptor (P14416 whole entry): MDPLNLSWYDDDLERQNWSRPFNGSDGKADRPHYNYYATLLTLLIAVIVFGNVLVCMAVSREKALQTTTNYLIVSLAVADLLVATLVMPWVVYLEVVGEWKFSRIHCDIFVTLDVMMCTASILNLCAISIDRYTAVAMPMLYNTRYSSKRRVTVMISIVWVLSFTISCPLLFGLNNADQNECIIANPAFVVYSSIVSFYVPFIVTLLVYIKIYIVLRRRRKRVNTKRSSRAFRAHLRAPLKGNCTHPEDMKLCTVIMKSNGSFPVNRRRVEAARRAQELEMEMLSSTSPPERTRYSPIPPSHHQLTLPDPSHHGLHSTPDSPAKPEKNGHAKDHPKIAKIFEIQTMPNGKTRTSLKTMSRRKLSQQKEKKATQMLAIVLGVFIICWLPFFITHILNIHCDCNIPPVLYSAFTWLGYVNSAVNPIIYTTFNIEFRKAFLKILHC

[3] = biological target: Endothelin-1 receptor (Homo sapiens) (UniProt P25101); assay: Displacement of [125I]-endothelin-1 from human recombinant ETA receptor at 10 uM after 120 mins by scintillation counting analysis relative to control
Histamine H1 receptor = Histamine H1 receptor (Homo sapiens, UniProt P35367); assay: Displacement of [3H]pyrilamine from human recombinant histamine H1 receptor at 10 uM after 60 mins by scintillation counting analysis relative to control
[4] = biological target: Kappa-type opioid receptor (Homo sapiens, UniProt P41145); assay: Displacement of [3H]U69593 from human kappa receptor at 10 uM after 60 mins by scintillation counting analysis relative to control
[5] = biological target: T2, 5-hydroxytryptamine receptor 6 (Homo sapiens, UniProt P50406); assay: Displacement of [3H]LSD from human recombinant 5-HT6 receptor at 10 uM after 120 mins by scintillation counting analysis relative to control
T2 sequence (P50406 whole entry): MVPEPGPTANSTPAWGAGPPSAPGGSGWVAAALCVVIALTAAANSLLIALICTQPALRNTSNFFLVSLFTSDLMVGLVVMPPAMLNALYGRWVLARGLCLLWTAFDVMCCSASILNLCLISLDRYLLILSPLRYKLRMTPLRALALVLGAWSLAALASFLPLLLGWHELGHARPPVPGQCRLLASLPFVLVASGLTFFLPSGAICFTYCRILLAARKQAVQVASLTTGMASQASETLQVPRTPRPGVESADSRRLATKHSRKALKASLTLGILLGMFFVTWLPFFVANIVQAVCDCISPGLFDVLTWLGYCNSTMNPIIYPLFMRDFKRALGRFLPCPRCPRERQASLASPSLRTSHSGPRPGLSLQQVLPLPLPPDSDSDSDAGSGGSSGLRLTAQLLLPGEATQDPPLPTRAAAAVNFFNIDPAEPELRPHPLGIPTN

[6] = biological target: Small conductance calcium-activated potassium channel (Rattus norvegicus) (UniProt P70604+P70606+P70605); assay: Displacement of [125I]apamin from rat brain SkCa channel at 10 uM after 60 mins by scintillation counting analysis relative to control
[7] = biological target: Adenosine receptor A1 (Homo sapiens) (UniProt P30542); assay: Displacement of [3H]-DPCPX from human recombinant adenosine A1 receptor at 1 uM after 60 mins by scintillation counting analysis relative to control
[8] = biological target: T1, Beta-1 adrenergic receptor; assay: Displacement of [3H](-)CGP 12177 from human beta1 adrenoceptor at 1 uM after 60 mins by scintillation counting analysis relative to control
Target sequence in this assay (P08588 whole entry, looked up): as the sequence (P08588 whole entry, looked up) above

[9] = biological target: 5-hydroxytryptamine receptor 1A (Homo sapiens) (UniProt P08908); assay: Displacement of [3H]8-OH-DPAT from recombinant human 5-HT1A receptor at 1 uM after 60 mins by scintillation counting analysis relative to control
[10] = biological target: 5-hydroxytryptamine receptor 1B (Rattus norvegicus) (UniProt P28564); assay: Displacement of [125I]-CYP from rat brain 5-HT1B receptor at 1 uM after 120 mins by scintillation counting analysis relative to control
Chain of 5-hydroxytryptamine receptor 1B (Rattus norvegicus) (P28564 whole entry): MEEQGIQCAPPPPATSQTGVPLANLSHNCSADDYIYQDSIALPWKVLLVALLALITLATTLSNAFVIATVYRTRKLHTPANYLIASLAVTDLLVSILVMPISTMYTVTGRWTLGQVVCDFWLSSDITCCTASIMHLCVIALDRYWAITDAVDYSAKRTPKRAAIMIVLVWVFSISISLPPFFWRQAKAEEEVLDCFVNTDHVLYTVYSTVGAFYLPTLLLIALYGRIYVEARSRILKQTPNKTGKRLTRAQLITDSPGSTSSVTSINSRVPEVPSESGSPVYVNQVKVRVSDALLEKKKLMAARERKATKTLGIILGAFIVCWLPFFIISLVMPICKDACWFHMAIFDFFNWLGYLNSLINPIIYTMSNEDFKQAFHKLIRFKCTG

[11] = biological target: 5-hydroxytryptamine receptor 3A (Homo sapiens) (UniProt P46098); assay: Displacement of [3H]BRL 43694 from human recombinant 5-HT3 receptor at 1 uM after 120 mins by scintillation counting analysis relative to control
Chain of 5-hydroxytryptamine receptor 3A (Homo sapiens) (P46098 whole entry): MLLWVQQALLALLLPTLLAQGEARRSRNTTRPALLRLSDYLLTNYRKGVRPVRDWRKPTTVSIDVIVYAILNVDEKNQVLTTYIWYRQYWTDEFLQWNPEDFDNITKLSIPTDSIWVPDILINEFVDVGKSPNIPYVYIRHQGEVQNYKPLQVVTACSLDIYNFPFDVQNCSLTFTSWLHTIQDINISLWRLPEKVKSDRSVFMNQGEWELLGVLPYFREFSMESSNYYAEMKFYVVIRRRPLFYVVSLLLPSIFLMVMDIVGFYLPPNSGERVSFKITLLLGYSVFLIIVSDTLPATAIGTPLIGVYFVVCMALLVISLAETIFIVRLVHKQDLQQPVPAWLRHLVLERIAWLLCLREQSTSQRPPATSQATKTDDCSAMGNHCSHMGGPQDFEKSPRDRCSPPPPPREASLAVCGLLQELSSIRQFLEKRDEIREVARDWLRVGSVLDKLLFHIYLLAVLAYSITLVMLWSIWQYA

Adenosine receptor A1 = Adenosine receptor A1 (Homo sapiens, UniProt P30542); assay: Displacement of [3H]-DPCPX from human recombinant adenosine A1 receptor after 60 mins by scintillation counting analysis
[12] = biological target: T1, Beta-1 adrenergic receptor; assay: Displacement of [3H](-)CGP 12177 from human beta1 adrenoceptor after 60 mins by scintillation counting analysis
Target sequence in this assay (P08588 whole entry): as the sequence (P08588 whole entry, looked up) above

B2 bradykinin receptor = B2 bradykinin receptor (Homo sapiens, UniProt P30411); assay: Displacement of [3H]bradykinin from human recombinant B2 receptor after 60 mins by scintillation counting analysis
Chain of B2 bradykinin receptor (P30411 whole entry): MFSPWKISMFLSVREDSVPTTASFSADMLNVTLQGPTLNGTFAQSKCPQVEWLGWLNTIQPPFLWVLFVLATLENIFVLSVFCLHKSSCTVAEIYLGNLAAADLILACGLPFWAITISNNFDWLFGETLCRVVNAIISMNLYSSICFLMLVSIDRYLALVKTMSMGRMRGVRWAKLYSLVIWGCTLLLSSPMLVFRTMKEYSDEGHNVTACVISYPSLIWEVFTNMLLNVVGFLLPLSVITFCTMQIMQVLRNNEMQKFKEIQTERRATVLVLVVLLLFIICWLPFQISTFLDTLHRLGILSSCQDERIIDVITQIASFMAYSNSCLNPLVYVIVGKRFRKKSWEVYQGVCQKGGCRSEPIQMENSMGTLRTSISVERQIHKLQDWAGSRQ

[13] = biological target: Muscarinic acetylcholine receptor M3 (Homo sapiens, UniProt P20309); assay: Displacement of [3H]4-DAMP from human recombinant M3 receptor after 60 mins by scintillation counting analysis
Chain of Muscarinic acetylcholine receptor M3 (P20309 whole entry): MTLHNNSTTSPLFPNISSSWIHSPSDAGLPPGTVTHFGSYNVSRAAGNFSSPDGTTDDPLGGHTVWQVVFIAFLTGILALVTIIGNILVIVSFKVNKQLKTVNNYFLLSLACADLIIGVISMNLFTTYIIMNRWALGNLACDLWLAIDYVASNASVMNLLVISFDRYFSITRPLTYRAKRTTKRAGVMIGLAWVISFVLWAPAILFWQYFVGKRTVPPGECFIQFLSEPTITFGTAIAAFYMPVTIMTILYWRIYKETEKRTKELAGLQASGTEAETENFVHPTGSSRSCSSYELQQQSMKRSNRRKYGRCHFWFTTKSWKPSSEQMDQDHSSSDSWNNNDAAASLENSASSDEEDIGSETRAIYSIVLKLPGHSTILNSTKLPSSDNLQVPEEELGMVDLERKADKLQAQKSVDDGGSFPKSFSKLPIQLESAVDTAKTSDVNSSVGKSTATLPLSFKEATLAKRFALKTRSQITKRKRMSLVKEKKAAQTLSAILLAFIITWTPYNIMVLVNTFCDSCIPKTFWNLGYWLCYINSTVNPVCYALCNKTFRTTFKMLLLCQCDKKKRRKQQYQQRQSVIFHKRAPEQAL

Mu-type opioid receptor = Mu-type opioid receptor (Homo sapiens, UniProt P35372); assay: Displacement of [3H]DAMGO from human recombinant mu receptor after 120 mins by scintillation counting analysis
Chain of Mu-type opioid receptor (P35372 whole entry): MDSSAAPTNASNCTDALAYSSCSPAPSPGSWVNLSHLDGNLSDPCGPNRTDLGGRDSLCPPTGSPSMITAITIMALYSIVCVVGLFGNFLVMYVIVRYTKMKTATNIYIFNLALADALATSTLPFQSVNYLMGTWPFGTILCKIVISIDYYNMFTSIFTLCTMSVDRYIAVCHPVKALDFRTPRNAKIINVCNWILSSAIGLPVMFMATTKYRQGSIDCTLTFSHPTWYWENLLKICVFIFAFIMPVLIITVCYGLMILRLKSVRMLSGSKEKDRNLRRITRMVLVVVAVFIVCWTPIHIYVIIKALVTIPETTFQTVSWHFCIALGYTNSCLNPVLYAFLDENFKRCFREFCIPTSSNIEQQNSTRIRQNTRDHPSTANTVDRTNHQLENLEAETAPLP

[14] = biological target: 5-hydroxytryptamine receptor 2A (Homo sapiens, UniProt P28223); assay: Displacement of [3H]ketanserin human recombinant 5-HT2A receptor after 60 mins by scintillation counting analysis
[15] = biological target: T2, 5-hydroxytryptamine receptor 6; assay: Displacement of [3H]LSD from human recombinant 5-HT6 receptor after 120 mins by scintillation counting analysis
[16] = biological target: Vasoactive intestinal polypeptide receptor 1 (Homo sapiens, UniProt P32241); assay: Displacement of [125I]VIP from human recombinant VPAC1 receptor after 60 mins by scintillation counting analysis
Chain of Vasoactive intestinal polypeptide receptor 1 (P32241 whole entry): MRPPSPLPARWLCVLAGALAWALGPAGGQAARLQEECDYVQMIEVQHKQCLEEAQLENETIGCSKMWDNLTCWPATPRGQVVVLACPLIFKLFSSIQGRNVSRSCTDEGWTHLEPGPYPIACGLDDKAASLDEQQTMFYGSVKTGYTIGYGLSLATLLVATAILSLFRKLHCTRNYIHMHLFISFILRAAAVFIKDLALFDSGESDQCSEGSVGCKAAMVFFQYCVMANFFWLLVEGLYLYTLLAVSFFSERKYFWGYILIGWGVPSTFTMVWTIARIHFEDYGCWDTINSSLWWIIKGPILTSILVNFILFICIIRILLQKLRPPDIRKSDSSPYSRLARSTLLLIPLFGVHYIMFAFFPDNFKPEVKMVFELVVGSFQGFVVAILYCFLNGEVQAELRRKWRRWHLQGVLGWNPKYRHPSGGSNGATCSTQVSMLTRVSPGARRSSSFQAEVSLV

[17] = biological target: Death-associated protein kinase 3 (Homo sapiens) (UniProt O43293); assay: Inhibition of recombinant full length GST-tagged human ZIPK expressed in baculovirus expression system at 10 uM in presence of ATP relative to control
Chain of Death-associated protein kinase 3 (Homo sapiens) (O43293 whole entry, looked up, the tested form may be a part): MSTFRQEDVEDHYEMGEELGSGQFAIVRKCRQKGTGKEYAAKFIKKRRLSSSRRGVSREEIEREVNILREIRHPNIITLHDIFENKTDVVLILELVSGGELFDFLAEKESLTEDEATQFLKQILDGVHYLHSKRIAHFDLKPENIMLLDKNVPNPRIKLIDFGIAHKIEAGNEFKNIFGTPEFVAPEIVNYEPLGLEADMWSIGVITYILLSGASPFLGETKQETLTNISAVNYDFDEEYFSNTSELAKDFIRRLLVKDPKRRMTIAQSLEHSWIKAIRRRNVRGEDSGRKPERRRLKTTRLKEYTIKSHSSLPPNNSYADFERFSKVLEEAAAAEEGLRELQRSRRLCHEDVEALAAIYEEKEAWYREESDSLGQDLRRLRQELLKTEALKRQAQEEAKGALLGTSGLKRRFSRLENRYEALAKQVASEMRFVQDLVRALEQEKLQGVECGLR

[18] = biological target: Fibroblast growth factor receptor 1 (Homo sapiens) (UniProt P11362); assay: Inhibition of recombinant His-tagged human FGFR1 cytoplasmic domain expressed in baculovirus expression system at 10 uM in presence of ATP relative to control
[19] = biological target: Mitogen-activated protein kinase 12 (Homo sapiens) (UniProt P53778); assay: Inhibition of recombinant full length His-tagged human p38gamma expressed in baculovirus expression system at 10 uM in presence of ATP relative to control
[20] = biological target: Serine/threonine-protein kinase PLK1 (Homo sapiens) (UniProt P53350); assay: Inhibition of full length recombinant His-tagged human PLK1 expressed in baculovirus expression system at 10 uM in presence of ATP relative to control
PXR (NR1I2) = biological target: T3, PXR (NR1I2) (Homo sapiens, UniProt O75469); assay: […] at PXR LBD (unknown origin) expressed in HEK293 cells […] at 10 uM after 16 hrs by luciferase reporter gene assay relative to rifampicin; format: ADME, cell-based; details: HEK293 cells expressing PXR LBD, read-out: Efficacy
T3 sequence (O75469 whole entry): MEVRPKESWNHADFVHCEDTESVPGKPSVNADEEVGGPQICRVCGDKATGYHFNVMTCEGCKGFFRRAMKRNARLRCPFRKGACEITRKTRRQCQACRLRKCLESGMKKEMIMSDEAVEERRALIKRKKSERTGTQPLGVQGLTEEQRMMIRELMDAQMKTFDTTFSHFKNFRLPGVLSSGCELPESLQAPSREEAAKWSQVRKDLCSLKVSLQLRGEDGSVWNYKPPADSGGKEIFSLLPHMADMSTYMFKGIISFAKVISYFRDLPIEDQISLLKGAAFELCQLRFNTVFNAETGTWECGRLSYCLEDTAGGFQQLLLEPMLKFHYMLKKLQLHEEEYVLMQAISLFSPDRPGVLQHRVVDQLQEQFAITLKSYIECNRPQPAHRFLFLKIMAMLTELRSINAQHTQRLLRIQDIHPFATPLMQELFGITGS

Cytochrome P450 3A4 = Cytochrome P450 3A4 (Homo sapiens, UniProt P08684); assay: Inhibition of CYP3A4 (unknown origin); format: ADME
[21] = Clearance in Sprague-Dawley rat at 1 mg/kg, iv; format: ADME, organism-based; details: in vivo
[22] = tested on: Casein kinase II subunit alpha' (CSNK2A2); assay: Inhibition of CK2alpha2 (unknown origin) at 10 uM in presence of ATP relative to control; details: Homo sapiens

Chain of Adenosine receptor A3 (Homo sapiens) (P0DMS8 whole entry): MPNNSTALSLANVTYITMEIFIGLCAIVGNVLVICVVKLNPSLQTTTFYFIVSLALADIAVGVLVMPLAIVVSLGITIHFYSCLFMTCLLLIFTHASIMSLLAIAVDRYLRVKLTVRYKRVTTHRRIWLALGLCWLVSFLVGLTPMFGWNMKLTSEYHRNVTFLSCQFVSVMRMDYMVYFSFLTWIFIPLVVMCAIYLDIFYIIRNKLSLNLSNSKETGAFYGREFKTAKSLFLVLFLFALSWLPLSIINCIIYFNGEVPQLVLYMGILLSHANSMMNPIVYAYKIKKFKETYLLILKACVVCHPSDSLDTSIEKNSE

With `CC(C)(C)NS(=O)(=O)c1ccc(-c2sc(C(=O)N[C@H]3C[C@H](C(=O)O)C3)nc2CC2CCCCC2)c2ccccc12` as the compound, how does the inhibition [1] read?
The inhibition was 81%.

What about the inhibition [2] of the same compound?
The inhibition was 11%.

What about the inhibition (D(2) dopamine receptor) of the same compound?
The inhibition was 19%.

What about the inhibition [3] of the same compound?
Its inhibition is < 10%.

What about the inhibition (Histamine H1 receptor) of the same compound?
The inhibition was 54%.

What about the inhibition [4] of the same compound?
Its inhibition is < 10%.

And the inhibition [5]?
Its inhibition is 33%.

What about the inhibition [6] of the same compound?
Its inhibition is < 10%.

What about the inhibition [7] of the same compound?
The inhibition was < 10%.

What about the inhibition [8] of the same compound?
Its inhibition is < 10%.

What about the inhibition [9] of the same compound?
The inhibition was < 10%.

What about the inhibition [10] of the same compound?
Its inhibition is < 10%.

And the inhibition [11]?
The inhibition was < 10%.

What about the IC50 (Adenosine receptor A1) of the same compound?
The IC50 was 610 pM.

What about the IC50 [12] of the same compound?
The IC50 was 297000 pM.

And the IC50 (B2 bradykinin receptor)?
The IC50 was 21000 pM.

What about the IC50 [13] of the same compound?
The IC50 was 730 pM.

And the IC50 (Mu-type opioid receptor)?
Its IC50 is 1100 pM.

And the IC50 [14]?
Its IC50 is 640 pM.

What about the IC50 [15] of the same compound?
Its IC50 is 254000 pM.

What about the IC50 [16] of the same compound?
Its IC50 is 470 pM.

What about the inhibition [17] of the same compound?
Its inhibition is -5%.

And the inhibition [18]?
Its inhibition is 2%.

What about the inhibition [19] of the same compound?
The inhibition was -2%.

What about the inhibition [20] of the same compound?
The inhibition was -6%.

What about the Emax at 16 h, 10 µM (PXR (NR1I2)) of the same compound?
Its Emax at 16 h, 10 µM is 195%.

What about the INH (Cytochrome P450 3A4) of the same compound?
The INH was > 10 µM.

What about the clearance [21] of the same compound?
Its clearance is 51.4 mL/min/kg.

And the inhibition [22]?
The inhibition was 2%.
